# Laboratory results from ChEMBL document CHEMBL1151405, “Biological and phytochemical investigation of Clausena excavata” (J Nat Prod, 1982).
# Active and inactive are the calls of the source. No cut-off for these calls is given here.
# How the values were obtained:
# Type in all cases: functional, organism-based
# Bacillus subtilis [1] = assay: Antimicrobial activity against Bacillus subtilis 6633 at 50 ppm after 48 hrs
# [2] = test system: Salmonella enterica subsp. enterica serovar Gallinarum; assay: Antimicrobial activity against Salmonella gallinarum X142 at 5 ppm after 24 hrs
# Staphylococcus aureus [3] = assay: Antimicrobial activity against Staphylococcus aureus 6538-P at 200 ppm after 48 hrs
# Pseudomonas aeruginosa [4] = assay: Antimicrobial activity against Pseudomonas aeruginosa NCTC 10490 at 50 ppm after 48 hrs
# [5] = test system: Salmonella enterica subsp. enterica serovar Gallinarum; assay: Antimicrobial activity against Salmonella gallinarum X142 at 100 ppm after 24 hrs
# Micrococcus luteus [6] = assay: Antimicrobial activity against Sarcina lutea 9341 at 5 ppm after 24 hrs
# Escherichia coli [7] = assay: Antimicrobial activity against Escherichia coli 10536 at 100 ppm after 24 hrs
# [8] = test system: Saccharomyces pastorianus; assay: Antimicrobial activity against Saccharomyces carlsbergensis at 100 ppm after 24 hrs
# Aspergillus niger [9] = assay: Antimicrobial activity against Aspergillus niger at 200 ppm after 24 hrs
# Streptococcus pneumoniae [10] = assay: Antimicrobial activity against Pneumococcus clinical isolates at 50 ppm after 48 hrs
# [11] = test system: Salmonella enterica subsp. enterica serovar Gallinarum; assay: Antimicrobial activity against Salmonella gallinarum X142 at 50 ppm after 24 hrs
# Micrococcus luteus [12] = assay: Antimicrobial activity against Sarcina lutea 9341 at 10 ppm after 24 hrs
# Pseudomonas aeruginosa [13] = assay: Antimicrobial activity against Pseudomonas aeruginosa NCTC 10490 at 10 ppm after 48 hrs
# [14] = test system: Bordetella bronchiseptica; assay: Antimicrobial activity against Bordetella bronchiseptica 4614 at 50 ppm after 48 hrs
# Pseudomonas aeruginosa [15] = assay: Antimicrobial activity against Pseudomonas aeruginosa NCTC 10490 at 200 ppm after 48 hrs
# Streptococcus pneumoniae [16] = assay: Antimicrobial activity against Pneumococcus clinical isolates at 10 ppm after 48 hrs
# Staphylococcus aureus [17] = assay: Antimicrobial activity against Staphylococcus aureus 6538-P at 10 ppm after 48 hrs
# Streptococcus pneumoniae [18] = assay: Antimicrobial activity against Pneumococcus clinical isolates at 200 ppm after 48 hrs
# Micrococcus luteus [19] = assay: Antimicrobial activity against Sarcina lutea 9341 at 200 ppm after 48 hrs
# Aspergillus niger [20] = assay: Antimicrobial activity against Aspergillus niger at 10 ppm after 24 hrs
# Aspergillus niger [21] = assay: Antimicrobial activity against Aspergillus niger at 100 ppm after 24 hrs
# Escherichia coli [22] = assay: Antimicrobial activity against Escherichia coli 10536 at 200 ppm after 24 hrs
# Escherichia coli [23] = assay: Antimicrobial activity against Escherichia coli 10536 at 5 ppm after 24 hrs
# Staphylococcus aureus [24] = assay: Antimicrobial activity against Staphylococcus aureus 6538-P at 50 ppm after 48 hrs
# Staphylococcus aureus [25] = assay: Antimicrobial activity against penicillin-resistant Staphylococcus aureus at 50 ppm after 24 hrs
# Pseudomonas aeruginosa [26] = assay: Antimicrobial activity against Pseudomonas aeruginosa NCTC 10490 at 100 ppm after 48 hrs
# [27] = test system: Saccharomyces pastorianus; assay: Antimicrobial activity against Saccharomyces carlsbergensis at 200 ppm after 24 hrs
# [28] = test system: Bordetella bronchiseptica; assay: Antimicrobial activity against Bordetella bronchiseptica 4614 at 100 ppm after 48 hrs
# Staphylococcus aureus [29] = assay: Antimicrobial activity against penicilln-resistant Staphylococcus aureus at 10 ppm after 24 hrs
# [30] = test system: Bordetella bronchiseptica; assay: Antimicrobial activity against Bordetella bronchiseptica 4614 at 200 ppm after 48 hrs
# Bacillus subtilis [31] = assay: Antimicrobial activity against Bacillus subtilis 6633 at 200 ppm after 48 hrs
# Bacillus subtilis [32] = assay: Antimicrobial activity against Bacillus subtilis 6633 at 5 ppm after 24 hrs
# [33] = test system: Saccharomyces pastorianus; assay: Antimicrobial activity against Saccharomyces carlsbergensis at 500 ppm after 24 hrs
# Streptococcus pneumoniae [34] = assay: Antimicrobial activity against Pneumococcus clinical isolates at 100 ppm after 48 hrs
# Staphylococcus aureus [35] = assay: Antimicrobial activity against penicillin-resistant Staphylococcus aureus at 200 ppm after 24 hrs
# Staphylococcus aureus [36] = assay: Antimicrobial activity against Staphylococcus aureus 6538-P at 100 ppm after 48 hrs
# [37] = test system: Salmonella enterica subsp. enterica serovar Gallinarum; assay: Antimicrobial activity against Salmonella gallinarum X142 at 200 ppm after 24 hrs
# [38] = test system: Bordetella bronchiseptica; assay: Antimicrobial activity against Bordetella bronchiseptica 4614 at 10 ppm after 48 hrs
# [39] = test system: Bordetella bronchiseptica; assay: Antimicrobial activity against Bordetella bronchiseptica 4614 at 5 ppm after 24 hrs
# Escherichia coli [40] = assay: Antimicrobial activity against Escherichia coli 10536 at 10 ppm after 24 hrs
# Escherichia coli [41] = assay: Antimicrobial activity against Escherichia coli 10536 at 50 ppm after 24 hrs
# Aspergillus niger [42] = assay: Antimicrobial activity against Aspergillus niger at 5 ppm after 24 hrs
# Staphylococcus aureus [43] = assay: Antimicrobial activity against penicilln-resistant Staphylococcus aureus at 100 ppm after 24 hrs
# [44] = test system: Saccharomyces pastorianus; assay: Antimicrobial activity against Saccharomyces carlsbergensis at 10 ppm after 24 hrs
# [45] = test system: Saccharomyces pastorianus; assay: Antimicrobial activity against Saccharomyces carlsbergensis at 5 ppm after 24 hrs
# Aspergillus niger [46] = assay: Antimicrobial activity against Aspergillus niger at 50 ppm after 24 hrs
# Staphylococcus aureus [47] = assay: Antimicrobial activity against penicillin-resistant Staphylococcus aureus at 5 ppm after 24 hrs
# [48] = test system: Salmonella enterica subsp. enterica serovar Gallinarum; assay: Antimicrobial activity against Salmonella gallinarum X142 at 10 ppm after 24 hrs
# Bacillus subtilis [49] = assay: Antimicrobial activity against Bacillus subtilis 6633 at 10 ppm after 48 hrs
# [50] = test system: Saccharomyces pastorianus; assay: Antimicrobial activity against Saccharomyces carlsbergensis at 50 ppm after 24 hrs
# Micrococcus luteus [51] = assay: Antimicrobial activity against Sarcina lutea 9341 at 50 ppm after 24 hrs
# Bacillus subtilis [52] = assay: Antimicrobial activity against Bacillus subtilis 6633 at 100 ppm after 48 hrs
# [53] = test system: Salmonella enterica subsp. enterica serovar Gallinarum; assay: Antimicrobial activity against Salmonella gallinarum X142 at 500 ppm after 24 hrs
# [54] = test system: Bordetella bronchiseptica; assay: Antimicrobial activity against Bordetella bronchiseptica 4614 at 500 ppm after 24 hrs
# Pseudomonas aeruginosa [55] = assay: Antimicrobial activity against Pseudomonas aeruginosa NCTC 10490 at 500 ppm after 24 hrs
# Bacillus subtilis [56] = assay: Antimicrobial activity against Bacillus subtilis 6633 at 500 ppm after 24 hrs
# Staphylococcus aureus [57] = assay: Antimicrobial activity against penicillin-resistant Staphylococcus aureus at 500 ppm after 24 hrs
# Streptococcus pneumoniae [58] = assay: Antimicrobial activity against Pneumococcus clinical isolates at 500 ppm after 24 hrs
# Staphylococcus aureus [59] = assay: Antimicrobial activity against Staphylococcus aureus 6538-P at 500 ppm after 24 hrs
# Aspergillus niger [60] = assay: Antimicrobial activity against Aspergillus niger at 500 ppm after 24 hrs
# Escherichia coli [61] = assay: Antimicrobial activity against Escherichia coli 10536 at 500 ppm after 24 hrs
# Micrococcus luteus [62] = assay: Antimicrobial activity against Sarcina lutea 9341 at 500 ppm after 24 hrs
structure (smiles),measurement,setting,value
C=CC(C)(C)c1c2c(c(O)c3ccc(=O)oc13)C=CC(C)(C)O2,Activity,Bacillus subtilis [1],Active
same,Activity,[2],inactive
same,Activity,Staphylococcus aureus [3],Active
same,Activity,Pseudomonas aeruginosa [4],Active
same,Activity,[5],inactive
same,Activity,Micrococcus luteus [6],inactive
same,Activity,Escherichia coli [7],inactive
same,Activity,[8],inactive
same,Activity,Aspergillus niger [9],inactive
same,Activity,Streptococcus pneumoniae [10],Active
same,Activity,[11],inactive
same,Activity,Micrococcus luteus [12],inactive
same,Activity,Pseudomonas aeruginosa [13],Active
same,Activity,[14],Active
same,Activity,Pseudomonas aeruginosa [15],Active
same,Activity,Streptococcus pneumoniae [16],Active
same,Activity,Staphylococcus aureus [17],Active
same,Activity,Streptococcus pneumoniae [18],Active
same,Activity,Micrococcus luteus [19],Active
same,Activity,Aspergillus niger [20],inactive
same,Activity,Aspergillus niger [21],inactive
same,Activity,Escherichia coli [22],inactive
same,Activity,Escherichia coli [23],inactive
same,Activity,Staphylococcus aureus [24],Active
same,Activity,Staphylococcus aureus [25],inactive
same,Activity,Pseudomonas aeruginosa [26],Active
same,Activity,[27],inactive
same,Activity,[28],Active
same,Activity,Staphylococcus aureus [29],inactive
same,Activity,[30],Active
same,Activity,Bacillus subtilis [31],Active
same,Activity,Bacillus subtilis [32],inactive
same,Activity,[33],inactive
same,Activity,Streptococcus pneumoniae [34],Active
same,Activity,Staphylococcus aureus [35],inactive
same,Activity,Staphylococcus aureus [36],Active
same,Activity,[37],inactive
same,Activity,[38],Active
same,Activity,[39],inactive
same,Activity,Escherichia coli [40],inactive
same,Activity,Escherichia coli [41],inactive
same,Activity,Aspergillus niger [42],inactive
same,Activity,Staphylococcus aureus [43],inactive
same,Activity,[44],inactive
same,Activity,[45],inactive
same,Activity,Aspergillus niger [46],inactive
same,Activity,Staphylococcus aureus [47],inactive
same,Activity,[48],inactive
same,Activity,Bacillus subtilis [49],Active
same,Activity,[50],inactive
same,Activity,Micrococcus luteus [51],inactive
same,Activity,Bacillus subtilis [52],Active
COc1c2c(cc3oc(=O)ccc13)OC(C)(C)C=C2,Activity,[53],inactive
same,Activity,[54],inactive
same,Activity,Pseudomonas aeruginosa [55],inactive
same,Activity,Bacillus subtilis [56],inactive
same,Activity,Staphylococcus aureus [57],inactive
same,Activity,Streptococcus pneumoniae [58],inactive
same,Activity,Staphylococcus aureus [59],inactive
same,Activity,Aspergillus niger [60],inactive
same,Activity,Escherichia coli [61],inactive
same,Activity,Micrococcus luteus [62],inactive
same,Activity,[33],inactive
C=CC(C)(C)c1cc2c(O)c3c(c(C(C)(C)C=C)c2oc1=O)OC(C)(C)C=C3,Activity,[53],inactive
same,Activity,[54],inactive
same,Activity,Pseudomonas aeruginosa [55],inactive
same,Activity,Bacillus subtilis [56],inactive
same,Activity,Staphylococcus aureus [57],inactive
same,Activity,Streptococcus pneumoniae [58],inactive
same,Activity,Staphylococcus aureus [59],inactive
same,Activity,Aspergillus niger [60],inactive
same,Activity,Escherichia coli [61],inactive
same,Activity,Micrococcus luteus [62],inactive
same,Activity,[33],inactive
C=CC(C)(C)c1c(O)c(/C=C/C(=O)O)c2c(c1O)C(=O)CC(C)(C)O2,Activity,[53],inactive
same,Activity,[54],inactive
same,Activity,Pseudomonas aeruginosa [55],inactive
same,Activity,Bacillus subtilis [56],inactive
same,Activity,Staphylococcus aureus [57],inactive
same,Activity,Streptococcus pneumoniae [58],inactive
same,Activity,Staphylococcus aureus [59],inactive
same,Activity,Aspergillus niger [60],inactive
same,Activity,Escherichia coli [61],inactive
same,Activity,Micrococcus luteus [62],inactive
same,Activity,[33],inactive
C=CC(C)(C)c1c(O)c2c(c3ccc(=O)oc13)OC(C)(C)CC2=O,Activity,[53],inactive
same,Activity,[54],inactive
same,Activity,Pseudomonas aeruginosa [55],inactive
same,Activity,Bacillus subtilis [56],inactive
same,Activity,Staphylococcus aureus [57],inactive
same,Activity,Streptococcus pneumoniae [58],inactive
same,Activity,Staphylococcus aureus [59],inactive
same,Activity,Aspergillus niger [60],inactive
same,Activity,Escherichia coli [61],inactive
same,Activity,Micrococcus luteus [62],inactive
same,Activity,[33],inactive
